According to ChEMBL document CHEMBL1148264, “Evaluation of series of isobenzofuranone dimers as PKCalpha ligands: implication for the distance between the two ligand binding sites” (Bioorg Med Chem Lett, 2004):

molecular target: Protein kinase C alpha type (Homo sapiens) (UniProt P17252); test: Displacement of [3H]PDBu from protein kinase C alpha at 100 uM; Range 40 to 60

inhibition	Compound
41%	O=C(CCCCCCCCC(=O)OC[C@@]1(CO)OC(=O)c2c(OCc3ccccc3)cccc21)CC[C@@]1(CO)OC(=O)c2c(OCc3ccccc3)cccc21
60%	CC(=O)OC[C@@]1(CO)OC(=O)c2c(OCCCCCCCCCCCOc3cccc4c3C(=O)O[C@]4(CO)COC(C)=O)cccc21
42%	CC(=O)OC[C@@]1(CO)OC(=O)c2c(OCCCCCCCCCOc3cccc4c3C(=O)O[C@]4(CO)COC(C)=O)cccc21
45%	CC(=O)OC[C@@]1(CO)OC(=O)c2c(OCCCCCCCCCCOc3cccc4c3C(=O)O[C@]4(CO)COC(C)=O)cccc21
54%	O=C(CCCCCCCCCCCCCCC(=O)OC[C@@]1(CO)OC(=O)c2c(OCc3ccccc3)cccc21)CC[C@@]1(CO)OC(=O)c2c(OCc3ccccc3)cccc21

molecular target: Protein kinase C alpha type (Homo sapiens) (UniProt P17252); test: Displacement of [3H]PDBu from protein kinase C alpha at 100 uM; Range 80 to 100

inhibition	Compound
85%	CC(=O)OC[C@@]1(CO)OC(=O)c2c(OCCCCCCCCCCCCCOc3cccc4c3C(=O)O[C@]4(CO)COC(C)=O)cccc21
90%	CCCCCCCCCCCC(=O)OC[C@@]1(CO)OC(=O)c2c(OCc3ccccc3)cccc21
91%	CC(=O)OC[C@@]1(CO)OC(=O)c2c(OCCCCCCCCCCCCCCCCOc3cccc4c3C(=O)O[C@]4(CO)COC(C)=O)cccc21
92%	CC(=O)OC[C@@]1(CO)OC(=O)c2c(OCCCCCCCCCCCCCCCOc3cccc4c3C(=O)O[C@]4(CO)COC(C)=O)cccc21
90%	CC(=O)OC[C@@]1(CO)OC(=O)c2c(OCCCCCCCCCCCCCCOc3cccc4c3C(=O)O[C@]4(CO)COC(C)=O)cccc21

molecular target: Protein kinase C alpha type (Homo sapiens) (UniProt P17252); test: Displacement of [3H]PDBu from protein kinase C alpha at 100 uM; Range 60 to 80

Compound	inhibition
O=C(CCCCCCCCCCC(=O)OC[C@@]1(CO)OC(=O)c2c(OCc3ccccc3)cccc21)CC[C@@]1(CO)OC(=O)c2c(OCc3ccccc3)cccc21	70%
CCCCCCCCCCCCOc1cccc2c1C(=O)O[C@]2(CO)COC(C)=O	70%

Other lines, results leading:

inhibition	Compound
70%	CC(=O)OC[C@@]1(CO)OC(=O)c2c(OCCCCCCCCCCCCOc3cccc4c3C(=O)O[C@]4(CO)COC(C)=O)cccc21
70%	O=C(CCCCCCCCCCCCC(=O)OC[C@@]1(CO)OC(=O)c2c(OCc3ccccc3)cccc21)CC[C@@]1(CO)OC(=O)c2c(OCc3ccccc3)cccc21

molecular target: Protein kinase C alpha type (Homo sapiens) (UniProt P17252); test: Displacement of [3H]PDBu from protein kinase C alpha at 100 uM; Range 2 to 40

inhibition	Compound
30%	CC(=O)OC[C@@]1(CO)OC(=O)c2c(OCc3ccccc3)cccc21

molecular target: Protein kinase C alpha type (Homo sapiens) (UniProt P17252); test: Displacement of [3H]PDBu from protein kinase C alpha at 100 uM; Range 20 to 40

inhibition	Compound
25%	CC(=O)OC[C@@]1(CO)OC(=O)c2c(OCCCCCCCCCCCCCCCCCCCCCCOc3cccc4c3C(=O)O[C@]4(CO)COC(C)=O)cccc21

molecular target: Protein kinase C alpha type (Homo sapiens) (UniProt P17252); test: Displacement of [3H]PDBu from protein kinase C alpha at 100 uM; Range 0 to 20

inhibition	Compound
4%	O=C(CC[C@@]1(CO)OC(=O)c2c(OCc3ccccc3)cccc21)c1ccccc1C(=O)OC[C@@]1(CO)OC(=O)c2c(OCc3ccccc3)cccc21
19%	O=C(CCCCCCC(=O)OC[C@@]1(CO)OC(=O)c2c(OCc3ccccc3)cccc21)CC[C@@]1(CO)OC(=O)c2c(OCc3ccccc3)cccc21
2%	O=C(CC[C@@]1(CO)OC(=O)c2c(OCc3ccccc3)cccc21)c1ccc(C(=O)OC[C@@]2(CO)OC(=O)c3c(OCc4ccccc4)cccc32)cc1
4%	O=C(CC[C@@]1(CO)OC(=O)c2c(OCc3ccccc3)cccc21)c1cccc(C(=O)OC[C@@]2(CO)OC(=O)c3c(OCc4ccccc4)cccc32)c1
19%	CC(=O)OC[C@@]1(CO)OC(=O)c2c(OCCCCCCCCCCCCCCCCCCCCCCCCOc3cccc4c3C(=O)O[C@]4(CO)COC(C)=O)cccc21
18%	O=C(CCCCC(=O)OC[C@@]1(CO)OC(=O)c2c(OCc3ccccc3)cccc21)CC[C@@]1(CO)OC(=O)c2c(OCc3ccccc3)cccc21
10%	O=C(CCCCCCCCCCCCCCCCCCC(=O)OC[C@@]1(CO)OC(=O)c2c(OCc3ccccc3)cccc21)CC[C@@]1(CO)OC(=O)c2c(OCc3ccccc3)cccc21

molecular target: Protein kinase C alpha type (Homo sapiens) (UniProt P17252); test: Displacement of [3H]PDBu from protein kinase C alpha at 100 uM; Range 20 to 30

inhibition	Compound
30%	O=C(CCCCCCCCCCCCCCCCC(=O)OC[C@@]1(CO)OC(=O)c2c(OCc3ccccc3)cccc21)CC[C@@]1(CO)OC(=O)c2c(OCc3ccccc3)cccc21
